{"source": "patent US20160033699A1", "about": "“POLARIZING PLATE” (NITTO DENKO CORPORATION, priority 2014, published 2016)", "data": [{"test": "log P value (octanol/water partition coefficient)", "conditions": "not given", "values": [{"compound": "CSc1ccc(C(=O)C(C)(C)N2CCOCC2)cc1", "note": "[IRGACURE 907, 2-methyl-1-(4-methylthiophenyl)-2-morpholinopropan-1-one]", "logP": 2.09}]}, {"test": "log P value (octanol/water partition coefficient)", "conditions": "octanol/water", "values": [{"compound": "C=CC(=O)OCCCCCCCCCCOC(=O)C=C", "note": "[1,10-decanediol diacrylate]", "logP": 4.1}]}, {"test": "log P value (octanol/water partition coefficient)", "conditions": "octanol/water partition coefficient", "values": [{"compound": "bisphenol A di(meth)acrylate", "log P": 5.46}, {"compound": "p-phenylphenol (meth)acrylate", "log P": 3.98}, {"compound": "CCc1cc(CC)c2sc3ccccc3c(=O)c2c1", "note": "[KAYACURE DETX-S, diethylthioxanthone]", "log P": 5.12}, {"compound": "bisphenol A-propylene oxide (4 mole) adduct di(meth)acrylate", "log P": 6.43}, {"compound": "bisphenol A-propylene oxide (2 mole) adduct di(meth)acrylate", "log P": 6.10}, {"compound": "tricyclodecanedimethanol diacrylate [LIGHT ACRYLATE DCP-A]", "log P": 3.05}, {"compound": "neopentyl glycol hydroxypivalate-(meth)acrylic acid adduct", "log P": 3.35}]}]}
